Laboratory results as given in BindingDB's records for doi:10.1021/jm00044a007 (Research Triangle Institute, 1994).

Target: Sodium-dependent dopamine transporter (Rattus norvegicus, UniProt P23977)
Assay: Concentration required to inhibit 50% of radioligand binding ([3H]WIN-35428) to the dopamine (DA) transporter in rat

Chain of Sodium-dependent dopamine transporter (P23977 whole entry): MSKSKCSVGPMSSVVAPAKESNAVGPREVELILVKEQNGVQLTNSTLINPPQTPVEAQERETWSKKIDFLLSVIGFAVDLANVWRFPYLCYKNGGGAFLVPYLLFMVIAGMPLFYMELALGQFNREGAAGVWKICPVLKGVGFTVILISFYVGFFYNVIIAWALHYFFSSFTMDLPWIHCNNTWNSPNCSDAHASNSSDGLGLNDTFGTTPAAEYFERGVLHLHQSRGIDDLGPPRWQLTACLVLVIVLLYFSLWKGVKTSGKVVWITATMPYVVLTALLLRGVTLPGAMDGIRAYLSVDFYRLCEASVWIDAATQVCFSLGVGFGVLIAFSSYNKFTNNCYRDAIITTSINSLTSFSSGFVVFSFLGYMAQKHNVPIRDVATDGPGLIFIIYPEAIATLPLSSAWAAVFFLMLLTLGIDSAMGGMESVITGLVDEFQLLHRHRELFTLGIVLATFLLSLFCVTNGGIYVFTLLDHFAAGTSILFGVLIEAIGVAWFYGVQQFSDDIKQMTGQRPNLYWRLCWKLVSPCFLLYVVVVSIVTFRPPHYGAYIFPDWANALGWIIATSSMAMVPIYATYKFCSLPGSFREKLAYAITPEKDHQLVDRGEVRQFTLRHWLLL

Question: For COC(=O)C1C2CCC(C[C@@H]1c1cc[c]([Sn]([CH3])([CH3])[CH3])cc1)N2C (stereo partly drawn) [(3S,8R)-8-Methyl-3-(4-trimethylstannanyl-phenyl)-8-aza-bicyclo[3.2.1]octane-2-carboxylic acid methyl ester], which IC50 is on record?
Answer: The IC50 was 144 nM.
